Data reported in PubChem BioAssay AID652149 (Molecular Libraries Program, Specialized Chemistry Center, …, 2013).
Calls of active or inactive are those of the source. How the calls were made is not given here.

Molecular target: Breakpoint cluster region protein (Homo sapiens) (UniProt P11274)
Experiment: breakpoint cluster region GTPase-activating protein domain inhibitors, dose-response, specificity counterscreen for MgcRacGAP inhibitor project, cell-free, Rac1 GTPase, Biomol Green phosphate readout (AID 652149)
Settings: BCR GAP/Rac1 GTPase, Biomol green phosphate absorbance; for inhibition: at 100 µM (top of the series)

Chain of Breakpoint cluster region protein (Homo sapiens) (P11274 whole entry, looked up, the tested form may be a part): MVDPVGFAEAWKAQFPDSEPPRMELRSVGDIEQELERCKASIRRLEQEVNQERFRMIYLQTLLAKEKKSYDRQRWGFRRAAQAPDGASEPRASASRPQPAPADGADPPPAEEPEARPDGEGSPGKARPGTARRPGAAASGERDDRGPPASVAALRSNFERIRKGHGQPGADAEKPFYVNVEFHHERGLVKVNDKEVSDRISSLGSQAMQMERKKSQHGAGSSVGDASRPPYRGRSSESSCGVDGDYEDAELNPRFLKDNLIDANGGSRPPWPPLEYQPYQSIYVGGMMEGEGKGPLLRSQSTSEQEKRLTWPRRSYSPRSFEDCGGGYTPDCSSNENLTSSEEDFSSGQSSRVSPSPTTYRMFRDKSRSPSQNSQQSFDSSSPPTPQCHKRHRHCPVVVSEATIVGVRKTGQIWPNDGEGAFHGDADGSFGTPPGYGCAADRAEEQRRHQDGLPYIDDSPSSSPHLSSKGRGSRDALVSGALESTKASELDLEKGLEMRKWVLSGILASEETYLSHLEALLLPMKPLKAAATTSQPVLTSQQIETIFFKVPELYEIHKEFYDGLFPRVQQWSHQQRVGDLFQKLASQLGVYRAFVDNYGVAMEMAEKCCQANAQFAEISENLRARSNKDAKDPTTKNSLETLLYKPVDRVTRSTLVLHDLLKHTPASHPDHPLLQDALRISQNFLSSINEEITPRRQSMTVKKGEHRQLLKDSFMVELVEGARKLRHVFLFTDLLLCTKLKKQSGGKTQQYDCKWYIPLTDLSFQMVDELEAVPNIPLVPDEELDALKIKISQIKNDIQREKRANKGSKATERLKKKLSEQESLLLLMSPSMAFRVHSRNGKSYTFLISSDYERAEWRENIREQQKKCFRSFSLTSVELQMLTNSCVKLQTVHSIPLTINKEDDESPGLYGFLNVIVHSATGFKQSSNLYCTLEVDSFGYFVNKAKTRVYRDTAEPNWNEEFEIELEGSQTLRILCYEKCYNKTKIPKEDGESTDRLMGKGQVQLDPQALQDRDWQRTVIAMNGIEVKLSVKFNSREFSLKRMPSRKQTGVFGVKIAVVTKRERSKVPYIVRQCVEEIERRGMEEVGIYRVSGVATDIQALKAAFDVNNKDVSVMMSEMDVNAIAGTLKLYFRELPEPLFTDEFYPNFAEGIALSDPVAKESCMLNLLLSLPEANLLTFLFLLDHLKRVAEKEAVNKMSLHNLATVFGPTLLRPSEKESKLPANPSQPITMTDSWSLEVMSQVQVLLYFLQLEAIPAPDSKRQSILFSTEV

SMILES | IC50 | inhibition
CC1=NNC(=O)C1Br (stereo unspecified) | 13.6 µM | 
CN(C)c1ncc(C2=C(Cl)C(=O)C(N3CCCC3)=C(Cl)C2=O)s1 |  | inactive
O=C(O)c1cc(N2C(=O)C=CC2=O)cc(N2C(=O)C=CC2=O)c1 | 24.4 µM | 
O=c1c2ccccc2sn1-c1cccc(Cl)c1 | 38.1 µM | 
O=C1C=CC(=O)N1c1ccccc1N1C(=O)C=CC1=O | 22.1 µM | 
O=C1C(Cl)=C(NC(=O)c2ccccc2)C(=O)C(Cl)=C1NC(=O)c1ccccc1 | 22.7 µM | 
Cc1ccc(C)c(-n2sc3ccc(F)cc3c2=O)c1 | 7.31 µM | 
O=C(O)c1cccc(-n2sc3ccccc3c2=O)c1 | 9.61 µM | 
O=c1c2cc(F)ccc2sn1-c1ccccc1 | 7.49 µM | 
Nc1ccc(OCc2ccco2)cc1 | 20.6 µM | 
O=C1NC(=S)N(c2ccccc2)C(=O)/C1=C/c1ccco1 | 10.2 µM | 
O=C1C=CC(=O)c2c(O)c(N3CCN(CCOCCO)CC3)c(Br)c(O)c21 | 31.4 µM | 
O=c1c2cc(F)ccc2sn1-c1ccccc1Cl | 8.92 µM | 
CN(C)c1ccc(/C=C/c2cc[n+](C)c3ccccc23)cc1 | 23.3 µM | 
O=c1c2ccc(F)cc2sn1-c1ccccc1 | 9.12 µM | 
O=C(O)C1CSC(c2ccco2)N1 (stereo unspecified) | 10.7 µM | 
CSc1nc(N)c(N=Nc2ccc([As](=O)(O)O)cc2)c(=O)[nH]1 | 5.86 µM | 
CC(=O)Nc1ccc2sn(-c3ccccc3)c(=O)c2c1 | 27.4 µM | 
Cc1cc(C)c2c(=N)c3ccccc3n(CCCCCCCCn3c4ccccc4c(=N)c4c(C)cc(C)nc43)c2n1 | 18 µM | 
COc1ccc(/C=N/Nc2cc(C)nc3ccc(OC)cc23)c(OC)c1 | 18.4 µM | 
O=C1C=CC(=O)c2c(O)c(N3CCN(CCO)CC3)c(Cl)c(O)c21 | 10.2 µM | 
O=C1C(=Cc2ccco2)CCC1=Cc1ccco1 | 12.7 µM | 
O=c1c2ccccc2sn1-c1ccc(Cl)cc1 | 4.44 µM | 

SMILES | IC50 | inhibition
O=C(Nc1ccccc1Cl)/C(Cl)=C(\Cl)S(=O)c1ccccc1 (stereo unspecified) | 12.6 µM | 
Cc1c(Cl)sn(-c2ccc(Cl)cc2)c1=O | 12.9 µM | 
COC(=O)c1cccc(-n2sc3ccccc3c2=O)c1 | 14.8 µM | 
O=c1c2ccccc2sn1-c1ccc(F)cc1 | 4.46 µM | 
O=c1c2ccccc2sn1-c1ccccc1F | 32.8 µM | 
CN(C)c1ccc(C=c2c3cc(O)ccc3n3c2cc(-c2ccccc2)[n+]3C)cc1 | 10.8 µM | 
O=C1C(SCCO)=C(SCCO)C(=O)c2ccccc21 | 25.2 µM | 
COc1ccc(Nc2ccc3ccccc3c2)cc1 | 5.93 µM | 
COc1ccc(-n2sc3ccccc3c2=O)cc1 | 13.3 µM | 
CCN(CC)c1ccc(C(=C2C=CC(=[N+](CC)CC)C=C2)c2ccc(N(CC)CC)cc2)cc1 | 35.1 µM | 
C[n+]1c(-c2ccc(C=NNC(=O)c3ccc(C(=O)NN=Cc4ccc(-c5cn6ccccc6[n+]5C)cc4)cc3)cc2)cn2ccccc21 | 14.4 µM | 
Cn1ccc(=Nc2ccc(NC(=O)c3ccc(N=c4ccn(C)c5ccc([N+](=O)[O-])cc45)cc3)cc2)cc1 | 14.2 µM | 
COc1ccc(-n2sc3ccc(F)cc3c2=O)cc1 | 9.82 µM | 
CN(C)c1nc(=NCc2cccs2)ss1 | 18.5 µM | 
O=C(O)c1cc(N2N=C(C(F)(F)F)/C(=C/C=C/c3ccco3)C2=O)ccc1Cl |  | inactive
COc1ccc(NC2CCCN(C(=O)C3(C)CCCCC3)C2)cc1 (stereo unspecified) | 7.34 µM | 
O=c1c2ccccc2sn1-c1ccc(Cl)cc1Cl | 4.22 µM | 
Nc1n[nH]c(=S)n1/N=C1/C(=O)Nc2ccccc21 | 14.6 µM | 
CCN1CCN(Cc2ccc(NC(=O)c3ccc(C)c(/C=C/c4cnc(Nc5cc(N6CCNCC6)nc(C)n5)cn4)c3)cc2C(F)(F)F)CC1 | 72.7 µM | 
CC1OC(CC(=O)O)CC2=C1C(=O)c1c(O)cccc1C2=O (stereo unspecified) | 13.2 µM | 
Cc1cc(N)c2cc(NC(=O)/C=C/c3ccccc3Cl)ccc2n1 | 29.1 µM | 
Cc1ccc(-n2sc3cc(F)ccc3c2=O)c(C)c1 | 6.71 µM | 
O=c1c2sc3ccccc3c2[nH]c(=S)n1CCN1CCOCC1 | 5.15 µM | 
